Reference: a melting point compilation (Tetko et al.; mined from patent text by program, amines drawn as free bases though some values may be those of a salt)

SMILES	melting point
COC(=O)c1cc(-c2ccncc2)[nH]c1-c1ccncc1	> 270 °C
Cc1cccc(Nc2cc(Nc3ccc(OCC(O)CN(C)C)cc3)ncn2)c1 (stereo not drawn)	192 to 195 °C
CC(=O)Nc1cnc(-c2ccccc2)nc1NCC(=O)N(C)c1ccccc1	200 to 201 °C
N#Cc1ccccc1C1=CC2CC(=O)CC2C1 (stereo not drawn)	36 to 37 °C
CCOC(=O)c1cnc2c3cc(OC)ccc3ccn2c1=O	184 to 186 °C
COc1ccc(OC)c(C(=O)C#CC(=O)O)c1	91 to 93 °C
O=c1cc(-c2ccc(OCCOc3ccc(-c4cc(=O)c5c(O)cc(O)cc5o4)cc3)cc2)oc2cc(O)cc(O)c12	352 to 355 °C
CN(C)CCCCNc1nc2cc(Cl)c(Cl)cc2nc1-c1ccccn1	81 to 83 °C
CC(C)(C)OC(=O)CCON=C(C(=O)O)c1ccco1	74.7 to 77.2 °C
N#CC(=C1CCCCCN1)c1ccccc1	108 to 113 °C
CC(=O)NCCCC(=O)c1ccc(Cl)cc1CCC(=O)N1CCN(C)CC1	126 to 128 °C
O=C(NC1CCOCC1)c1ccc(-c2ccc3nnn(Cc4ccc5ncccc5c4)c3n2)cc1	202 to 205 °C
Clc1ccccc1-c1cnn2cnnc2n1	162 to 165 °C
Cc1nccn1-c1cccc(-n2cnc3cc(-c4ccoc4)ccc32)c1	105 to 107 °C
O=C(O)CCn1c(=O)c(=O)[nH]c2cc(C(F)(F)F)c(-n3cccc3)cc21	190 to 192 °C
COc1ccc(C(=O)Nc2c(Cl)cncc2Cl)nc1OC1CCCC1	164 to 166 °C
COc1cccc(C(=O)O)c1C	145 to 147 °C
COc1cccc(C2(CC(=O)N(C)C)C=CCCC2)c1 (stereo not drawn)	161 to 162 °C
O=C(C1CCCN1C(=O)CCCN1C(=O)c2ccccc2C1=O)N1CCCC1 (stereo not drawn)	148 to 149 °C
O=C(O)CCCCCCCCCCc1ccc(F)cc1F	56 °C
CCc1cccc(-c2c(-c3ccc4nn(C)cc4c3)nsc2NC(=O)[C@@H]2C[C@H]2C)n1	159 °C
CC1(C)CC2(CC(C)(C)c3ccc(Oc4cccc(N)c4)cc32)c2cc(Oc3cccc(N)c3)ccc21	206 °C
CCCOCCOc1ccc(-c2ccc3c(c2)C=C(C(=O)O)CCCN3CCC)cc1	202 to 204 °C
CCOC(=O)[C@H](CCc1ccccc1)N[C@@H](C)C(=O)N1N=C(c2ccc(SC)cc2)S[C@H]1C(=O)O	163 to 164 °C
CS(=O)(=O)c1ccc(-n2nc(C(F)(F)F)cc2-c2ccc(-c3cscn3)c(Cl)c2)cc1F	108 to 110 °C

SMILES	melting point
CCCCCCCCCCS(=O)(=O)Nc1cc(C(=O)Nc2ccccc2)ccc1OC	160 to 161 °C
CCOc1cccc(-c2cc(F)c(NC(=O)c3ccccc3CO)c(Cl)c2)c1	139 to 142 °C
CCOC(=O)C1(CCl)Nc2cc(C)cc(C)c2C(=O)N1c1ccccc1Cl (stereo not drawn)	94 to 95 °C
CCOCc1nc2c(N)nc3cc(-c4cccnc4)ccc3c2n1CCN1CCNCC1	208 to 211 °C
CC12C=CCC1C1CC(O)c3cc(O)ccc3C1CC2 (stereo not drawn)	150 to 157 °C
C=C1c2ccccc2-c2ccccc21	46 to 48 °C
Sc1nnc(-c2ccc(Cl)cc2)s1	178 °C
CN(C)c1cccc(Oc2ccccc2N2CCN(CCCc3c[nH]c4ccccc34)CC2)c1	156 to 162 °C
COc1nc(C)cnc1NS(=O)(=O)c1cccnc1-c1ccc(CC(C)(C)C)cc1	159 to 160 °C
COc1ccc(Br)c(Cl)c1C(=O)O	186 to 188 °C
O=[N+]([O-])C=C1SCCN1Cc1ccco1	190 to 192 °C
CC1(C)SC2C(NC(=O)Nc3ccccc3)C(=O)N2C1c1nnn[nH]1 (stereo not drawn)	110 to 120 °C
COc1cc(Cl)nnc1NS(=O)(=O)c1cccc(Cl)c1Cl	226 to 227 °C
O=c1c(CCCCCc2ccncc2)cc2cccnc2n1-c1cccc([N+](=O)[O-])c1	189 to 190 °C
COC(=O)c1ccc(-c2nc(-c3ccc(C(C)(C)C)cc3)cs2)cc1	154 to 155 °C
Cc1ccc(-n2nc(C(F)F)cc2-c2ccc(S(C)(=O)=O)cc2)cc1Cl	137 to 139 °C
COC(=O)Nc1cccc2c1C(=O)c1ccccc1C2=O	214 °C
CS(=O)(=O)NC(=O)CCCCCCCCCCCNC(=O)NC12CC3CC(CC(C3)C1)C2	103 °C
Cc1ccc(S(=O)(=O)c2ccc(N3CCNCC3)cc2N)cc1	102 to 106 °C
Nc1c(Br)cc(Br)c(O)c1Br	119 °C
COc1cc(OC)nc(Oc2cccc3c2C(=O)OC3O)n1 (stereo not drawn)	143 to 145 °C
Cc1oc(Cc2ccccc2)c(C(=O)c2cc(C(C)C)c(O)c(C(C)C)c2)c1C	138 °C
O=c1ccc(-c2ccc(CCCO)cc2)cn1Cc1ccc(Cl)cc1	165 °C
COc1cc(OC)cc(S(=O)(=O)c2ccc([N+](=O)[O-])cc2)c1	150 to 152 °C
COc1cc(OC)c(-c2cc3ccccc3s2)cc1/C=C/C(=O)c1ccc(C(=O)NCC(F)(F)F)cc1	215 to 217 °C

SMILES	melting point
Nc1ncc2ncn(CCC(CO)CO)c2n1	154 °C
CCOC(NC(=O)c1cccc(OC)c1)C(N)=O (stereo not drawn)	143 to 144 °C
CCc1nc2c(o1)C(=O)C=C(Nc1ccc(F)cc1)C2=O	232 °C
CCCN(C(=O)c1cccc(-c2nc(=O)c3ccccc3s2)n1)C(=O)N(C)C	191 to 192 °C
COc1ccc(-n2nc(Sc3ccc(C(C)C)cc3)c(C)c(C#N)c2=O)cc1	141 to 144 °C
COc1cc2c(cc1OC)CC(NC(=O)C1CCCN1C(C)=O)CC2 (stereo not drawn)	63 to 65 °C
O=C(NC1=NCCS1)c1cnc2c(C(F)(F)F)cccc2c1O	267 to 268 °C
COc1cccc2c1[C@@H](Oc1cc(C(=O)N(C)C)cn3c(C)c(C)nc13)[C@H](O)C2 (relative stereo)	129 °C
Cn1cc(-c2ncc(-c3ccc4cc(OCC#N)ccc4c3)o2)c2ccccc21	196 to 198 °C
CCCCCCCCCCOc1ccc(-c2ccccc2)cc1	70 to 73 °C
COCc1ccc(Oc2cc(OC3CCOCC3)c3[nH]c(C4=NCC(CC(C)(C)O)S4)cc3c2)cn1 (stereo not drawn)	108 to 110 °C
CN1CCN(c2cccc3ccc(NC(=O)c4ccc(O)cc4)cc23)CC1	156 to 160 °C
CCN(CC)CCOc1ccc(N2C(=O)C(c3ccccc3)=C3CCCCC32)cc1 (stereo not drawn)	81 °C
COc1ccc2cc3c(c(-c4ccc5c(c4)OCO5)c2c1OC)CNC3=O	255 to 256 °C
O=C(Cn1cc(-c2ccccc2)c(-c2ccccc2)n1)NCCN1CCCCC1	120 to 124 °C
COc1ccc(N(C)C(=O)CN2C(=O)c3ccccc3C2=O)c(OC)c1COc1cccc2ccc(C)nc12	184 to 185 °C
CCC12CCC3C4CCC(=O)C=C4CCC3C1CCC2O (stereo not drawn)	147 to 149 °C
Cc1nc(-c2ccc(N)c(Br)c2)c[nH]1	34 to 36 °C
O=C1Nc2cccnc2N(C(=O)CCC#CCN2CCCCC2)c2ccccc21	197 °C
O=C(c1ccc(Cl)cc1)c1ccc2[nH]c(=O)cc(-c3cccc(Cl)c3)c2c1	235 °C
OC(c1ccccc1)C1CCCN1 (stereo not drawn)	110 °C
CCCn1c(-c2ccc(-n3ccnc3)cc2)cnc1[C@H](Cc1ccccn1)N(C=O)c1cc2cc(Cl)ccc2o1	173 to 175 °C
c1ccc(N(CCCNC2=NC3CCC2CC3)c2ccccc2)cc1	148 to 150 °C
CCCCC1OC(=O)c2cc(NC(C)C)ccc21 (stereo not drawn)	72 to 74 °C
CN(C=O)C1CCC(O)(c2ccc(Cl)c(Cl)c2)c2ccccc21 (stereo not drawn)	123 to 125 °C

SMILES	melting point
O=C(Nc1cccc([N+](=O)[O-])c1)NC1N=C(c2ccccc2F)c2ccccc2N(CC(=O)N2CC3CCC(CC3)C2)C1=O (racemic)	180 to 187 °C
O=c1[nH]nc(-c2ccccc2O)o1	198 to 200 °C
O=C(N1CCOCC1)N1Cc2c(-c3nc(C4CC4)cs3)ncn2-c2ccccc21	193 to 194 °C
COc1cc(C[NH+]([O-])C(=O)C(F)(F)F)ccn1 (stereo not drawn)	176 to 178 °C
CC(C)(Cc1cc2cc(OCc3ccc4ccccc4n3)ccc2n1Cc1ccc(Cl)cc1)C(=O)O	193 to 194 °C
CCCCOc1cc(CNCCN(CC)CC)cc(S(N)(=O)=O)c1Cc1ccccc1	89 to 93 °C
CCOC(=O)CCc1nc(-c2cc3ccccc3o2)cs1	65 to 66 °C
CCCCCCSCC(O)COc1cccc2oc(C(=O)O)cc(=O)c12 (stereo not drawn)	97 to 100 °C
Nc1c2c(nc3cc(C(F)(F)F)ccc13)CCSC2	253 to 259 °C
CCOC(=O)C(C)Oc1cc(-n2c(=O)cc(C(F)(F)F)n(C)c2=O)c(F)cc1Cl (stereo not drawn)	72 to 74 °C
Cc1cc(SC2=C(O)CC(C3CCCC3)(C3CCCC3)OC2=O)c(C(C)(C)C)cc1OCCO	90 to 92 °C
COc1cccc(Cc2cc3cccc(-c4cccc(C(=O)NC5CCOCC5)c4)c3o2)c1	146 to 147 °C
CCCCc1nc(S(C)(=O)=O)c(C(=O)O)n1Cc1ccc(-c2ccccc2C(=O)O)cc1	196 °C
CC1OC(Oc2ccc(C(=O)c3ccc(C#N)cc3)cc2)C(O)C(O)C1O (stereo not drawn)	96 °C
Nc1nc(COCC(F)(F)F)nc2nccnc12	145 to 147 °C
CCOC(=O)c1ccc(CN2CCN(C3=NC4(C=CC(=O)C=C4)C(c4ccccc4)=C3)CC2)cc1	199 °C
CCOC(=O)c1sc(C)nc1OCCCc1cc(OC(C)C)nn1Cc1ccc(Cl)cc1Cl	92 to 93 °C
Cc1cc(C(O)(C(F)(F)F)C(F)(F)F)cc(C)c1NCCO	110 to 113 °C
CC(Oc1ccc(Oc2ccc(Cl)cc2Cl)cc1)C(=O)N1CCCO1 (stereo not drawn)	115 to 118 °C
CCOC(=O)CC(c1ccccc1)N(N)C(=O)c1cc(C(=O)OCc2ccccc2)ccc1OCCOC (racemic)	139 to 140 °C
CCS(=O)(=O)N(CC(=O)Nc1ccncc1)C1CC(C)(C)Oc2ccc(F)cc21 (stereo not drawn)	195 °C
CS(=O)(=O)c1nccc(Oc2ccc(NC(=O)c3cc(F)cc(N4CCOCC4)c3)c3ccccc23)n1	173 to 175 °C
O=[N+]([O-])c1ccc(CO)c(CCO)c1	79 to 81 °C
